As a reminder, the Ki is a measure of affinity in units of concentration, obtained from inhibition or displacement.

This assay concerns the target dopamine transporter (DAT) (Rattus norvegicus, UniProt P23977). The assay is described as follows: biochemical.

Each structure is given as a SMILES string.

Sequence of dopamine transporter (DAT) (P23977 whole entry): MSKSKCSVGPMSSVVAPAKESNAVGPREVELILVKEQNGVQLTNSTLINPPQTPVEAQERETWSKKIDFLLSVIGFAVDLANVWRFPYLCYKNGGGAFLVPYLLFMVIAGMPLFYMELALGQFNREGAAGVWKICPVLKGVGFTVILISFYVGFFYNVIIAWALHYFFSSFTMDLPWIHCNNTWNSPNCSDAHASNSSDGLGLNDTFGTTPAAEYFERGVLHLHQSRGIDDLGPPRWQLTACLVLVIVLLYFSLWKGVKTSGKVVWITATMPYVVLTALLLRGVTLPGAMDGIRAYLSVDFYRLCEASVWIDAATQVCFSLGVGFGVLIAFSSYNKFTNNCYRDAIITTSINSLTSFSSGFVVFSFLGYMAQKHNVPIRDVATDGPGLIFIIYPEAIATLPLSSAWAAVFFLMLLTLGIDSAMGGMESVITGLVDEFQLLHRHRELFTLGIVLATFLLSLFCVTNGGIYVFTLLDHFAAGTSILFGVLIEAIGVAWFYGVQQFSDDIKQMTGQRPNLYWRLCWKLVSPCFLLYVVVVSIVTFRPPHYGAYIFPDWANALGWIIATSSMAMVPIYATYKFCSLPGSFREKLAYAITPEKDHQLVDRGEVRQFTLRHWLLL

`CN1C2CCC1[C@@H](CNc1ccc(Br)nc1)[C@@H](c1ccc(Cl)cc1)C2` (stereo partly shown) [Compound 6b] returned a Ki of 17 nM.

(Values after publication PMC3085641 (Bioorganic & medicinal chemistry letters, 2011).)
